Assay results reported in patent US11110171B2, “PD-1 related cancer therapy” (New York University, priority 2017, dated 2021).

Tests used:
[1] = test system: phosphorylation of ERK, PLCγ and ZAP70 in Jurkat T cells; assay: Immunoblot of PD-1 signaling in Jurkat T cells stimulated with anti-CD3 or anti-CD3+PDL2 beads; format: cell-based, human; conditions: SAP-deficient (SAP KD) Jurkat T cells, SHP099 10 uM for one hour, anti-CD3+PDL2 beads 5 minutes
[2] = test system: IL-2 secretion of human CD3+ T cells; assay: IL-2 secretion (ELISA) of primary human CD3+ T cells stimulated with anti-CD3 or anti-CD3+PDL2 beads; format: cell-based; conditions: control or SAP KD siRNA, anti-CD3+PDL2 beads 24 hours
Procedure: FIG. 13. (a) Jurkat T cells were transfected with non-targeting siRNA control and siRNA to SAP, followed by immunoblot analysis. […] Media was harvested and IL-2 levels were measured (ELISA). * P<0.05, NS not significant, n=3, unpaired t test. (c) control vector or SAP-expressing vector for 48 hours and samples were analyzed for SAP expression by immunoblotting. (d) Cell expressing SAP were stimulated overnight and CD69 expression levels were recorded by FACS. (e) T cells from XLP patients and healthy controls were tested for PD-1 expression by FACS analysis. For FIG. 7b 13b, the bars from left to right for each set are: Control, CD3, and CD3+PDL2.
By contrast, overexpression of SAP-GFP (FIG. 13c and FIG. 5b) abrogated the ability of PD-1 to inhibit anti-CD3-induced IL-2 secretion (FIG. 5c), CD69 up regulation (FIG. 5d and FIG. 13d), IFN-γ release (FIG. 5e), and T cell adhesion to fibronectin-coated wells (FIG. 5f). Thus, SAP appears to be a negative regulator of PD-1 signaling and function in T cells.
Primary human T cells were isolated from whole blood using RosetteSep (Stemcell) followed by Ficoll-Paque, according to the manufacturer's instructions. The cells were maintained in enriched media (HEPES 25 mM, Sodium pyruvate 100 mM, Nonessential amino acid, and L-Glutamine) at 5% C02 and 37° C. […]

CC1(N)CCN(c2cnc(-c3cccc(Cl)c3Cl)c(N)n2)CC1.Cl [SHP099]
PD-1's ability to inhibit the phosphorylation of ERK, PLCγ and ZAP70 [1]: abrogated | PD-1's ability to inhibit IL-2 secretion [2]: abrogation
